Values quoted from earlier work in US9968093B1, “Development and manufacturing process of powdered additive for its use in coatings or substrates to repel, reduce and control insects” (priority 2016, dated 2018).
“Also recorded” adds a separate entry of the source. Read-outs that look alike come from different tables or passages of the source.

What was measured:
[1] = for Toxicity: toxicity in words
[2] = for Stability in aqueous medium, in words: pH as stated in the value; for Time to decompose (Mean life): aqueous medium

## CCOP(=S)(OCC)Oc1ccc2c(C)c(Cl)c(=O)oc2c1 [Coumaphos]
[1]
  Toxicity: Toxic

## CCOC(=O)CC(SP(=S)(OC)OC)C(=O)OCC (stereo not shown) [Malathion]
[2]
  Stability in aqueous medium, in words: Quickly hydrolyzed at pHs over 7. The optimal pH

## CCN(CC)c1nc(C)cc(OP(=S)(OC)OC)n1 [Methyl pirimiphos]
[2]; pH 5
  Time to decompose (Mean life): 7 days
[2]; pH 8
  Time to decompose (Mean life): 5 days

## C=CCC1=C(C)C(OC(=O)C2C(C=C(C)C)C2(C)C)CC1=O [D-allethrin]
[2]; pH 7
  Time to decompose (Mean life): 500 days
[2]; pH 9
  Time to decompose (Mean life): (4.3 days)
[2]
  Stability in aqueous medium, in words: Stable at pH 5 after 31 days

## CCOP(=S)(OCC)Oc1cc(C)nc(C(C)C)n1 [Diazinon]
[2]; pH 5
  Time to decompose (Mean life): 31 days
[2]; pH 7.5
  Time to decompose (Mean life): 185 days
[2]; pH 9
  Time to decompose (Mean life): 136 days

## CNC(=O)Oc1cccc2c1OC(C)(C)C2 [Carbofuran]
[1]
  Toxicity (group): Group II
  Toxicity: Mildly toxic

## CC1(C)C(C=C(Cl)Cl)C1C(=O)OCc1cccc(Oc2ccccc2)c1 (stereo not shown) [Permethrin]
[2]
  Stability in aqueous medium, in words: Stable at pH between 5 and 6.

## CCOP(=S)(OCC)Oc1nc(Cl)c(Cl)cc1Cl [Chlorpyrifos]
[2]; pH 10
  Time to decompose (Mean life): 7 days
[2]
  Stability in aqueous medium, in words: stable in neutral and lightly

## CC1(C)[C@H](C(=O)O[C@H](C#N)c2cccc(Oc3ccccc3)c2)[C@@H]1C=C(Br)Br [Deltamethrin]
[2]; pH 7
  Time to decompose (Mean life): 0.33 days
[2]
  Stability in aqueous medium, in words: more stable in medium acid solutions

## O=C(NC(=O)c1c(F)cccc1F)Nc1ccc(Cl)cc1 [Diflubenzuron]
[2]
  Stability in aqueous medium, in words: Stable in pH between 5 and 7; also recorded: Hydrolyzed at pH 9

## CC1(C)C(C=C(Cl)Cl)C1C(=O)OC(C#N)c1cccc(Oc2ccccc2)c1 (stereo not shown) [Cypermethrin]
[2]; pH 9
  Time to decompose (Mean life): 7 days

## CC(COc1ccc(Oc2ccccc2)cc1)Oc1ccccn1 (stereo not shown) [Pyriproxyfen]
[2]
  Stability in aqueous medium, in words: Stable in a pH range between 4 and 9.

## OB(O)O [Boric acid]
[1]
  Toxicity (group): Group II
  Toxicity: Mildly toxic
